# “And” between values parts separate entries of the source, which are not always exact repeats. Identical values can stand only once.
# Tested on: 843782-103-R-J1-PDC complex spheroid viability
# Experiment: Anticancer human tumor 843782-103-R-J1-PDC patient-derived lung adenocarcinoma cell line growth inhibition [RAS]
# Conditions: for IC50: curve of first compound; for viability, T/C: stronger effect = lower value
# In short: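 Agents were tested in combination matrices in half-log decrements from a top concentration at or near clinical Cmax (10 microM if undetermined). Targets were multi-cell spheroids of tumour lines plus HUVEC and MSC stromal cells.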
# [1] = second compound 0.00316 µM, first compound 0.0316 µM
# [2] = second compound 0.00316 µM, first compound 0.1 µM
# [3] = second compound 0.00316 µM, first compound 0.316 µM
# [4] = second compound 0.00316 µM, first compound 1 µM
# [5] = second compound 0.01 µM, first compound 0.0316 µM
# [6] = second compound 0.01 µM, first compound 0.1 µM
# [7] = second compound 0.01 µM, first compound 0.316 µM
# [8] = second compound 0.01 µM, first compound 1 µM
# [9] = second compound 0.0316 µM, first compound 0.0316 µM
# [10] = second compound 0.0316 µM, first compound 0.1 µM
# [11] = second compound 0.0316 µM, first compound 0.316 µM
# [12] = second compound 0.0316 µM, first compound 1 µM
# [13] = second compound 0.1 µM, first compound 0.0316 µM
# [14] = second compound 0.1 µM, first compound 0.1 µM
# [15] = second compound 0.1 µM, first compound 0.316 µM
# [16] = second compound 0.1 µM, first compound 1 µM
# [17] = second compound 0.316 µM, first compound 0.0316 µM
# [18] = second compound 0.316 µM, first compound 0.1 µM
# [19] = second compound 0.316 µM, first compound 0.316 µM
# [20] = second compound 0.316 µM, first compound 1 µM
# [21] = second compound 1 µM, first compound 0.0316 µM
# [22] = second compound 1 µM, first compound 0.1 µM
# [23] = second compound 1 µM, first compound 0.316 µM
# [24] = second compound 1 µM, first compound 1 µM
# 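Also: viability read after seven days of compound exposure.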
structure (smiles),measurement,setting,value
CC1(O)CCCC1n1c(=O)c(C(F)F)cc2cnc(NC3CCN(S(C)(=O)=O)CC3)nc21 (stereo not given) + C=CC(=O)N1CCN(c2nc(OCC3CCCN3C)nc3c(F)c(-c4nc(N)cc(C)c4C(F)(F)F)c(Cl)cc23)C(C)C1,IC50,second compound 0.00316 µM,147 nM
same,IC50,second compound 0.01 µM,152 nM
same,IC50,second compound 0.0316 µM,96.4 nM
same,IC50,second compound 0.1 µM,126 nM
same,IC50,second compound 0.316 µM,140 nM
same,IC50,second compound 1 µM,138 nM
same,"viability, T/C",[1],84.9%
same,"viability, T/C",[2],61.6%
same,"viability, T/C",[3],27.7%
same,"viability, T/C",[4],24.3%
same,"viability, T/C","second compound 0.00316 µM, first compound 3.16 µM",24.2%
same,"viability, T/C","second compound 0.00316 µM, first compound 10 µM",2.56%
same,"viability, T/C",[5],81.2%
same,"viability, T/C",[6],61.4%
same,"viability, T/C",[7],28.2%
same,"viability, T/C",[8],29.2%
same,"viability, T/C","second compound 0.01 µM, first compound 3.16 µM",21.7%
same,"viability, T/C","second compound 0.01 µM, first compound 10 µM",3.18%
same,"viability, T/C",[9],75.9%
same,"viability, T/C",[10],49.9%
same,"viability, T/C",[11],24%
same,"viability, T/C",[12],27.5%
same,"viability, T/C","second compound 0.0316 µM, first compound 3.16 µM",19.6%
same,"viability, T/C","second compound 0.0316 µM, first compound 10 µM",2.81%
same,"viability, T/C",[13],78.7%
same,"viability, T/C",[14],59.2%
same,"viability, T/C",[15],24.4%
same,"viability, T/C",[16],27.2%
same,"viability, T/C","second compound 0.1 µM, first compound 3.16 µM",23%
same,"viability, T/C","second compound 0.1 µM, first compound 10 µM",2.61%
same,"viability, T/C",[17],86%
same,"viability, T/C",[18],58.8%
same,"viability, T/C",[19],26.2%
same,"viability, T/C",[20],28.5%
same,"viability, T/C","second compound 0.316 µM, first compound 3.16 µM",25.2%
same,"viability, T/C","second compound 0.316 µM, first compound 10 µM",2.69%
same,"viability, T/C",[21],84.1%
same,"viability, T/C",[22],54.1%
same,"viability, T/C",[23],33.1%
same,"viability, T/C",[24],25.1%
same,"viability, T/C","second compound 1 µM, first compound 3.16 µM",17.2%
same,"viability, T/C","second compound 1 µM, first compound 10 µM",2.07%
O=C(c1ccc(F)c(F)c1Nc1ccc(I)cc1F)N1CC(O)([C@@H]2CCCCN2)C1,"viability, T/C",compound 0.00316 µM,99.8% and 99.4% and 102% (2×)
same,"viability, T/C",compound 0.01 µM,93.1% [middle of 4 runs]
same,"viability, T/C",compound 0.316 µM,48.7% [middle of 4 runs]
same,"viability, T/C",compound 1 µM,27.1% [middle of 4 runs]
C=CC(=O)N1CCN(c2nc(OCC3CCCN3C)nc3c(F)c(-c4nc(N)cc(C)c4C(F)(F)F)c(Cl)cc23)C(C)C1 (stereo not given) + CCn1c(-c2cccnc2C(C)OC)c2c3cc(ccc31)N1CCOC(CC(NC(=O)C(C(C)C)N(C)C(=O)C3(F)CCN(C(=O)C#CC(C)(C)N(C)C)CC3)C(=O)N3CCCC(N3)C(=O)OCC(C)(C)C2)C1,IC50,second compound 0.000949 µM,> 1000 nM
same,IC50,second compound 0.003 µM,> 1000 nM
same,IC50,second compound 0.00949 µM,> 1000 nM
same,IC50,second compound 0.03 µM,> 1000 nM
same,IC50,second compound 0.0949 µM,> 1000 nM
same,IC50,second compound 0.3 µM,> 1000 nM
same,"viability, T/C","second compound 0.000949 µM, first compound 0.00316 µM",80.5%
same,"viability, T/C","second compound 0.000949 µM, first compound 0.01 µM",67.2%
same,"viability, T/C","second compound 0.000949 µM, first compound 0.0316 µM",75.9%
same,"viability, T/C","second compound 0.000949 µM, first compound 0.1 µM",77.9%
same,"viability, T/C","second compound 0.000949 µM, first compound 0.316 µM",72.8%
same,"viability, T/C","second compound 0.000949 µM, first compound 1 µM",78.5%
same,"viability, T/C","second compound 0.003 µM, first compound 0.00316 µM",71.4%
same,"viability, T/C","second compound 0.003 µM, first compound 0.01 µM",69.3%
same,"viability, T/C","second compound 0.003 µM, first compound 0.0316 µM",77.7%
same,"viability, T/C","second compound 0.003 µM, first compound 0.1 µM",81.6%
same,"viability, T/C","second compound 0.003 µM, first compound 0.316 µM",78.3%
same,"viability, T/C","second compound 0.003 µM, first compound 1 µM",74.4%
same,"viability, T/C","second compound 0.00949 µM, first compound 0.00316 µM",63.6%
same,"viability, T/C","second compound 0.00949 µM, first compound 0.01 µM",62.4%
same,"viability, T/C","second compound 0.00949 µM, first compound 0.0316 µM",77.5%
same,"viability, T/C","second compound 0.00949 µM, first compound 0.1 µM",80.1%
same,"viability, T/C","second compound 0.00949 µM, first compound 0.316 µM",88.1%
same,"viability, T/C","second compound 0.00949 µM, first compound 1 µM",74.4%
same,"viability, T/C","second compound 0.03 µM, first compound 0.00316 µM",82.4%
same,"viability, T/C","second compound 0.03 µM, first compound 0.01 µM",71.6%
same,"viability, T/C","second compound 0.03 µM, first compound 0.0316 µM",71.5%
same,"viability, T/C","second compound 0.03 µM, first compound 0.1 µM",75.4%
same,"viability, T/C","second compound 0.03 µM, first compound 0.316 µM",82.5%
same,"viability, T/C","second compound 0.03 µM, first compound 1 µM",69.4%
same,"viability, T/C","second compound 0.0949 µM, first compound 0.00316 µM",81.6%
same,"viability, T/C","second compound 0.0949 µM, first compound 0.01 µM",75.9%
same,"viability, T/C","second compound 0.0949 µM, first compound 0.0316 µM",77.6%
same,"viability, T/C","second compound 0.0949 µM, first compound 0.1 µM",79.7%
same,"viability, T/C","second compound 0.0949 µM, first compound 0.316 µM",77.7%
same,"viability, T/C","second compound 0.0949 µM, first compound 1 µM",77%
same,"viability, T/C","second compound 0.3 µM, first compound 0.00316 µM",65.4%
same,"viability, T/C","second compound 0.3 µM, first compound 0.01 µM",69.2%
same,"viability, T/C","second compound 0.3 µM, first compound 0.0316 µM",61.2%
same,"viability, T/C","second compound 0.3 µM, first compound 0.1 µM",70.7%
same,"viability, T/C","second compound 0.3 µM, first compound 0.316 µM",68%
same,"viability, T/C","second compound 0.3 µM, first compound 1 µM",69.6%
CCN1CCN(Cc2ccc(Nc3ncc(F)c(-c4cc(F)c5nc(C)n(C(C)C)c5c4)n3)nc2)CC1 + C=CC(=O)N1CCN(c2nc(OCC3CCCN3C)nc3c(F)c(-c4nc(N)cc(C)c4C(F)(F)F)c(Cl)cc23)C(C)C1,IC50,second compound 0.00316 µM,988 nM
same,IC50,second compound 0.01 µM,471 nM
same,IC50,second compound 0.0316 µM,697 nM
same,IC50,second compound 0.1 µM,764 nM
same,IC50,second compound 0.316 µM,> 1000 nM
same,IC50,second compound 1 µM,836 nM
same,"viability, T/C","second compound 0.00316 µM, first compound 0.00316 µM",86.1%
same,"viability, T/C","second compound 0.00316 µM, first compound 0.01 µM",93.4%
same,"viability, T/C",[1],88.5%
same,"viability, T/C",[2],86.3%
same,"viability, T/C",[3],68.1%
same,"viability, T/C",[4],49.8%
same,"viability, T/C","second compound 0.01 µM, first compound 0.00316 µM",88.4%
same,"viability, T/C","second compound 0.01 µM, first compound 0.01 µM",86.6%
same,"viability, T/C",[5],86.3%
same,"viability, T/C",[6],74.9%
same,"viability, T/C",[7],53.8%
same,"viability, T/C",[8],43%
same,"viability, T/C","second compound 0.0316 µM, first compound 0.00316 µM",83.1%
same,"viability, T/C","second compound 0.0316 µM, first compound 0.01 µM",83.7%
same,"viability, T/C",[9],81.4%
same,"viability, T/C",[10],79.8%
same,"viability, T/C",[11],65.5%
same,"viability, T/C",[12],42.2%
same,"viability, T/C","second compound 0.1 µM, first compound 0.00316 µM",89.5%
same,"viability, T/C","second compound 0.1 µM, first compound 0.01 µM",81%
same,"viability, T/C",[13],81.5%
same,"viability, T/C",[14],80%
same,"viability, T/C",[15],60.7%
same,"viability, T/C",[16],46.7%
same,"viability, T/C","second compound 0.316 µM, first compound 0.00316 µM",88.9%
same,"viability, T/C","second compound 0.316 µM, first compound 0.01 µM",86%
same,"viability, T/C",[17],83.7%
same,"viability, T/C",[18],71.9%
same,"viability, T/C",[19],62.5%
same,"viability, T/C",[20],57.7%
same,"viability, T/C","second compound 1 µM, first compound 0.00316 µM",91.1%
same,"viability, T/C","second compound 1 µM, first compound 0.01 µM",83.2%
same,"viability, T/C",[21],86.7%
same,"viability, T/C",[22],78.3%
same,"viability, T/C",[23],63.5%
same,"viability, T/C",[24],47.5%
